Laboratory results: ChEMBL document CHEMBL1131144, “N-Substituted 9beta-methyl-5-(3-hydroxyphenyl)morphans are opioid receptor pure antagonists” (J Med Chem, 1998)

Tests used:
[1] = target: Delta-type opioid receptor (Rattus norvegicus, UniProt P33533); experiment: Binding activity against Opioid receptor delta 1 using [3H]DADLE as radioligand in rat brain membranes.; type: cell membranes
Mu-type opioid receptor [2] = target: Mu-type opioid receptor (Cavia porcellus, UniProt P97266); experiment: Inhibition of [35S]GTP-gamma-S, binding in guinea pig caudate stimulated by DAMGO (Opioid receptor mu 1); type: functional
[3] = target: T1, Kappa-type opioid receptor (Cavia porcellus, UniProt P41144); experiment: Inhibition of [35S]GTP-gamma-S, binding in guinea pig caudate stimulated by U69,593 in Opioid receptor kappa 1; type: functional
[4] = target: T1, Kappa-type opioid receptor; experiment: Binding activity against Opioid receptor kappa 1 using [3H]U-69593 as radioligand in guinea pig membranes.; type: cell membranes
Mu-type opioid receptor [5] = target: Mu-type opioid receptor (Rattus norvegicus, UniProt P33535); experiment: Binding activity against Opioid receptor mu 1 using [3H]DAMGO as radioligand in rat brain membranes.; type: cell membranes
[6] = target: Kappa-type opioid receptor (Homo sapiens, UniProt P41145); experiment: Binding affinity against Opioid receptor kappa 1 using [3H]ethylketocyclazocine as radioligand.
Mu-type opioid receptor [7] = target: Mu-type opioid receptor (Homo sapiens, UniProt P35372); experiment: Binding affinity against Opioid receptor mu 1 using [3H]naloxone as radioligand.
[8] = target: T1, Kappa-type opioid receptor; experiment: Binding activity against kOpioid receptor kappa 1 using [3H]U-69593 as radioligand in guinea pig membranes.; type: cell membranes

T1 sequence (P41144 whole entry): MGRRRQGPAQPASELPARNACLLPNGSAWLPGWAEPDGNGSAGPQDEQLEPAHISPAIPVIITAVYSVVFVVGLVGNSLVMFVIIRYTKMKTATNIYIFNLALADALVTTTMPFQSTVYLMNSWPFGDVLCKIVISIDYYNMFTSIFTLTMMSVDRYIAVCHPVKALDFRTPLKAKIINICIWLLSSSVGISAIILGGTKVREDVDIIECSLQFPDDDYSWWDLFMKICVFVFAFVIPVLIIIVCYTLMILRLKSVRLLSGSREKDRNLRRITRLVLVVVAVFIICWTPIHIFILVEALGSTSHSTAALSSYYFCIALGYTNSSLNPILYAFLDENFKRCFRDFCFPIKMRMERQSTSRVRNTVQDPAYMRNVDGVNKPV
Sequence of Mu-type opioid receptor (Cavia porcellus, UniProt P97266) (P97266 whole entry): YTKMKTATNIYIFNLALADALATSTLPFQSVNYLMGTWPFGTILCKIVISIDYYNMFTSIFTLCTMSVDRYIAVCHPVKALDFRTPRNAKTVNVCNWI
Sequence of Mu-type opioid receptor (Rattus norvegicus, UniProt P33535) (P33535 whole entry): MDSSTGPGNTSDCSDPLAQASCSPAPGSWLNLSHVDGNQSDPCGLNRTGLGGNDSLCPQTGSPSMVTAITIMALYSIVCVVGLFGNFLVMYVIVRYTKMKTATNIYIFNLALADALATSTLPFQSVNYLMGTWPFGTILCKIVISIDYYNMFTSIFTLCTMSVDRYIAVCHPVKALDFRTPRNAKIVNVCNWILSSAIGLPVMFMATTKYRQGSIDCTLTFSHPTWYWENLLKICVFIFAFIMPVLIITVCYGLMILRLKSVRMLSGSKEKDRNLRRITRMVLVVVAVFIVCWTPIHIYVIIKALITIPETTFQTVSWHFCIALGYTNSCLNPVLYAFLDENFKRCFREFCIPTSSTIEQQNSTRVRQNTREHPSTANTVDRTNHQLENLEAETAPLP
Sequence of Delta-type opioid receptor (P33533 whole entry): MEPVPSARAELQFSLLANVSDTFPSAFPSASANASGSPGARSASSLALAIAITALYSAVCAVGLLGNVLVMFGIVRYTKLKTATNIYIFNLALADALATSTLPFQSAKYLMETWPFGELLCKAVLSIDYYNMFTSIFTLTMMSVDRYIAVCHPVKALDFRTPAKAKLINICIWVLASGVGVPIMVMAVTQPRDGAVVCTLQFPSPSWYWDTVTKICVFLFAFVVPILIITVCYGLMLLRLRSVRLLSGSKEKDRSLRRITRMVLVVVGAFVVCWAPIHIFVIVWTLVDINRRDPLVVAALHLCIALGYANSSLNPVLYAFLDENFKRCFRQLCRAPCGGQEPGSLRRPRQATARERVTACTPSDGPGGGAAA
Sequence of Mu-type opioid receptor (Homo sapiens, UniProt P35372) (P35372 whole entry): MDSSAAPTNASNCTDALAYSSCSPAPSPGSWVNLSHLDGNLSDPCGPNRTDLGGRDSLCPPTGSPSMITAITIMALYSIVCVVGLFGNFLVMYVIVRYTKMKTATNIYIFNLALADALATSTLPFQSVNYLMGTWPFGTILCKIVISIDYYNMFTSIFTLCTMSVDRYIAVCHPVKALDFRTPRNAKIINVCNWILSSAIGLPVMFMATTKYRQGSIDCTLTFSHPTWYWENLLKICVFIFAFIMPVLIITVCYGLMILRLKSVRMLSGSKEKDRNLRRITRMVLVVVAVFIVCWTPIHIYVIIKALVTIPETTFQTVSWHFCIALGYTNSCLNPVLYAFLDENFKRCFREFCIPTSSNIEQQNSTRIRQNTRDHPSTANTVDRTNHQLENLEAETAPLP
Sequence of Kappa-type opioid receptor (Homo sapiens, UniProt P41145) (P41145 whole entry): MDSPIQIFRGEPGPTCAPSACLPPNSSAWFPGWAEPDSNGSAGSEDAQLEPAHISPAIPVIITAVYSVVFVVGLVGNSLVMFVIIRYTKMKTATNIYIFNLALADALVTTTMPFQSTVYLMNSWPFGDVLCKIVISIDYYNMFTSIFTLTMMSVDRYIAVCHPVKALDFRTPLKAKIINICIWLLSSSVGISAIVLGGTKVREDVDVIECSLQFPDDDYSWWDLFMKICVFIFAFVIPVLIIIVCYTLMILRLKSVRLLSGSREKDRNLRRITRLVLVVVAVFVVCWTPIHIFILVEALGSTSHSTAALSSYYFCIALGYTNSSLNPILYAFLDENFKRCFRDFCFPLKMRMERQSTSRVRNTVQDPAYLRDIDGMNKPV

Row | SMILES | Ki [1] [nM] | Ki (Mu-type opioid receptor [2]) [nM] | Ki [3] [nM] | Ki [4] [nM] | Ki (Mu-type opioid receptor [5]) [nM] | Ki [6] [nM] | Ki (Mu-type opioid receptor [7]) [nM] | Ki [8] [nM]
1 | C[C@H]1C2CCCC1(c1cccc(O)c1)CCN2C (some centres not stated) | > 10000 | 21.3 | 105 | 816 | 166 | – | – | –
2 | C[C@H]1CN(C)CC[C@@]1(C)c1cccc(O)c1 | – | – | – | – | – | 833 | 80 | –
3 | C[C@H]1C2CCCC1(c1cccc(O)c1)CCN2CCc1ccccc1 (some centres not stated) | 272 | 0.338 | 1.34 | – | 3.11 | – | – | 14.5
